Test results as given in publication PMC4610730 (Journal of medicinal chemistry, 2015).

Experiments:
APOBEC3G (A3G) = APOBEC3G (A3G) (Homo sapiens, UniProt Q9HC16); experiment: Fluorescence-based ssDNA C-to-U DNA deaminase assay, A3G; assay type: biochemical; settings: for A3G inhibitory activity: substructures of the decomposition products, data not shown
APOBEC3A (A3A) = APOBEC3A (A3A) (Homo sapiens, UniProt P31941); experiment: Fluorescence-based ssDNA C-to-U DNA deaminase assay, A3A; assay type: biochemical
[1] = Aging of 1 under photochemical conditions; assay type: physicochemical; settings: 10 mM DMSO, visible light 300 W, N2 atmosphere (balloon, 1 atm), 9 h, no sensitizer
[2] = LC-MS analysis of aged DMSO stocks; assay type: physicochemical; settings: DMSO stock, LC-MS on day 38; for Decomposition product observed: carboxylic acid (analogous to 6) / Decomposition product observed: enone (analogous to 8) / Decomposition product observed: lactam (analogous to 5): Table 1; for Decomposition product observed: bis-enone (equivalent to 8) / Decomposition product observed: carboxylic acid (equivalent to 6) / Decomposition product observed: lactam (equivalent to 5): Table 2
[3] = Aging of DMSO stocks of 1 under varied conditions; assay type: physicochemical
[4] = Storage stability of isolated decomposition products; assay type: physicochemical; settings: significant periods of time
[5] = freshly synthesized and solubilized, day 0, dose response up to 200 μM

Sequence of APOBEC3G (A3G) (Q9HC16 whole entry): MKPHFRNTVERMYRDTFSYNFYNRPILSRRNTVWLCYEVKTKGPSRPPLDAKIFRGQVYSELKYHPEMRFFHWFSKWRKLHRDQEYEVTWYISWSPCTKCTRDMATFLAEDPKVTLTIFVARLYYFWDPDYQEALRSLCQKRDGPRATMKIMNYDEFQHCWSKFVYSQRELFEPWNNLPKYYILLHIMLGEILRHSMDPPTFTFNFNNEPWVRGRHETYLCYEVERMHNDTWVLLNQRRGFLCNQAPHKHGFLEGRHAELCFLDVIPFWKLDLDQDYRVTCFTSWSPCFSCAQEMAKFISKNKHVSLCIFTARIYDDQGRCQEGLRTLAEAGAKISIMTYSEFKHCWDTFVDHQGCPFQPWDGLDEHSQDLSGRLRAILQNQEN
Sequence of APOBEC3A (A3A) (P31941 whole entry): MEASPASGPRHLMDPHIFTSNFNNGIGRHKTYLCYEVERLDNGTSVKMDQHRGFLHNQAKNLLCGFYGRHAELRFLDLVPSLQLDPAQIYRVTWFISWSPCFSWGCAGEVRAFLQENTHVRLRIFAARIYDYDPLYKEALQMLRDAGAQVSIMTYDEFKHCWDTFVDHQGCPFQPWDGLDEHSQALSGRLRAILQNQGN

Compound	Decomposition product observed: carboxylic acid (analogous to 6) [2]	Decomposition product observed: enone (analogous to 8) [2]	Decomposition product observed: lactam (analogous to 5) [2]	Decomposition product observed: bis-enone (equivalent to 8) [2]	Decomposition product observed: carboxylic acid (equivalent to 6) [2]	Decomposition product observed: lactam (equivalent to 5) [2]	further results
O=C(O)c1cc(O)nc2ccccc12 [2-Hydroxyquinonline-4-carboxylic acid]							A3G inhibitory activity (APOBEC3G (A3G)): inactive
Nc1nnc(-c2ccncc2)s1 [compound 4, 5-(pyridin-4-yl)-1,3,4-thiadiazol-2-amine]							A3G inhibitory activity (APOBEC3G (A3G)): inactive
CC(=O)/C=C\C(=O)c1cc(C(=O)Nc2nnc(-c3ccncc3)s2)c2ccccc2n1 [compound 8, (Z)-2-(4-oxopent-2-enoyl)-N-(5-(pyridin-4-yl)-1,3,4-thiadiazol-2-yl)quinoline-4-carboxamide]							stability for storage in organic solvents [4]: not stable
Cc1ccc(-c2cc(C(=O)O)c3ccccc3n2)o1 [compound 12, 2-(5-Methylfuran-2-yl)quinoline-4-carboxylic acid]	+ 218.1 (218.1)	+ 270.1 (270.1)	+ 190.1 (190.1)				
O=C(O)c1cc(-c2ccco2)nc2ccccc12 [compound 14]	-	-	+ 190.2 (190.1)				
Cc1ccc(-c2cc(C(=O)O)ccn2)o1 [compound 16]	-	+ 220.1 (220.1)	-				
O=C(O)c1ccnc(-c2ccco2)c1 [compound 18]	-	-	-				
Cc1ccc(-c2cc(C(=O)O)c3ccccc3c2)o1 [compound 20]	-	+ 269.2 (269.1)	-				
O=C(O)c1cc(-c2ccco2)cc2ccccc12 [compound 22]	-	+ 254.1 (254.1)	-				
Cc1ccc(-c2ccc3ccccc3n2)o1 [compound 23]	-	+ 226.2 (226.2)	-				
c1coc(-c2ccc3ccccc3n2)c1 [compound 24]	-	-	-				
Cc1ccc(-c2cc(C(=O)NC(C)C3CCCO3)c3ccccc3n2)o1 (stereo not drawn) [compound 25]				+ 367.2 (367.2)	+ 315.1 (315.1)	+ 287.1 (287.1)	
Cc1ccc(-c2cc(C(=O)NC3CCCCC3)c3ccccc3n2)o1 [compound 27]				+ 351.2 (351.2)	+ 299.1 (299.1)	+ 271.1 (271.1)	
COc1ccc(CCNC(=O)c2cc(-c3ccc(C)o3)nc3ccccc23)cc1 [compound 28]				+ 403.2 (403.2)	+ 351.2 (351.1)	+ 323.1 (323.1)	
Cc1ccc(-c2cc(C(=O)NCc3ccc4c(c3)OCO4)c3ccccc3n2)o1 [compound 29]				+ 403.1 (403.1)	+ 351.2 (351.1)	+ 323.1 (323.1)	
O=C(NNC(=O)c1cc(-c2ccco2)nc2ccccc12)NC1CCCCC1 [compound 30]				-	+ 357.1 (357.1)	+ 329.1 (329.1)	
Cc1ccc(-c2cc(C(=O)N3CCN(S(C)(=O)=O)CC3)c3ccccc3n2)o1 [compound 31]				+ 416.1 (416.1)	+ 364.1 (364.1)	+ 336.1 (336.1)	
O=C(O)c1cc(C(=O)O)c2ccccc2n1 [quinoline-2,4-carboxylic acid]							A3G inhibitory activity (APOBEC3G (A3G)): inactive

The next lines start with results.

Decomposition product observed: carboxylic acid (analogous to 6) [2]	Decomposition product observed: enone (analogous to 8) [2]	Decomposition product observed: lactam (analogous to 5) [2]	Decomposition product observed: bis-enone (equivalent to 8) [2]	Decomposition product observed: carboxylic acid (equivalent to 6) [2]	Decomposition product observed: lactam (equivalent to 5) [2]	Compound	further results
+ 378.1 (378.1)	+ 430.1 (430.1)	+ 350.1 (350.1)	+ 430.1 (430.1)	+ 378.1 (378.1)	+ 350.1 (350.1)	Cc1ccc(-c2cc(C(=O)Nc3nnc(-c4ccncc4)s3)c3ccccc3n2)o1 [compound 1, 2-(5-Methylfuran-2-yl)-N-(5-(pyridin-4-yl)-1,3,4-thiadiazol-2-yl)quinoline-4-carboxamide]	inhibitory activity against A3A (APOBEC3A (A3A); aged DMSO stock of synthesized compound): never recovered; A3A inhibition (APOBEC3A (A3A); [5]): no inhibition; decomposition under irradiation [1]: virtually no decomposition; decomposition of DMSO stock ([3]; 10 mM DMSO stock aged in the dark): no decomposition; decomposition of DMSO stock ([3]; 10 mM DMSO stock aged in the presence of NaN3): no decomposition; decomposition of DMSO stock ([3]; 10 mM DMSO stock aged under inert conditions (N2)): drastically reduced decomposition; rate of decomposition versus storage temperature ([3]; DMSO stock stored at -20 °C vs. rt vs. 37 °C, data not shown): same rate regardless of the temperature; A3G inhibition (APOBEC3G (A3G); [5]): no inhibition
+ 378.2 (378.1)	-	+ 350.2 (350.1)				O=C(Nc1nnc(-c2ccncc2)s1)c1cc(-c2ccco2)nc2ccccc12 [compound 13]	
+ 328.2 (328.0)	+ 380.2 (380.1)	-				Cc1ccc(-c2cc(C(=O)Nc3nnc(-c4ccncc4)s3)ccn2)o1 [compound 15]	
-	-	-				O=C(Nc1nnc(-c2ccncc2)s1)c1ccnc(-c2ccco2)c1 [compound 17]	
+ 377.2 (377.1)	+ 429.2 (429.1)	-				Cc1ccc(-c2cc(C(=O)Nc3nnc(-c4ccncc4)s3)c3ccccc3c2)o1 [compound 19]	
+ 377.2 (377.1)	+ 415.1 (415.1)	-				O=C(Nc1nnc(-c2ccncc2)s1)c1cc(-c2ccco2)cc2ccccc12 [compound 21]	
			+ 360.2 (360.1)	+ 308.1 (308.1)	+ 280.1 (280.1)	Cc1cccc(NC(=O)c2cc(-c3ccc(C)o3)nc3ccccc23)n1 [compound 26]	
			+ 461.1 (461.1)	+ 409.1 (409.1)	+ 381.1 (381.1)	COC(=O)c1cc(NC(=O)c2cc(-c3ccc(C)o3)nc3ccccc23)cc(C(=O)OC)c1 [compound 32]	
